Assay results as given in publication PMC7203245, “Lacosamide intake during pregnancy increases the incidence of foetal malformations and symptoms associated with schizophrenia in the offspring of mice” (Scientific Reports, 2020).
Marks after values point to notes of the source that are not given here.

How the values were obtained:
developing embryos = assay: Embryo development at E14.5 after daily LCM administration to dams (litters, resorptions, litter size, malformations); assay type: in vivo, mice; details: for CR length (cm): crown-rump
Description: Thus, we used 10, 40, 80 and 120 mg/kg in mice, which corresponded to 56.7, 227, 454 and 681 mg/day in humans, considering an average weight of human to be 70 kg and that of mice to be 30 gr[52],[55]. Controls were administered the vehicle alone: saline solution 0.9% w/v. […] A total of 32 dams were initially treated daily, two days before mating and until the 14th day post-coitus. […] In the breastfeeding period, females were not under treatment given that a person will bottle feed the baby if they were on medication.
Maternal weights were assessed at the end of the treatment periods. After 14.5 days of gestation (embryonic day14.5, E14.5), blood was extracted from the orbital sinus of the pregnant dams under anaesthesia (70 mg/kg Thiobarbital: Braun Medical S.A. Spain), as described previously[56] and sacrificed by neck dislocation immediately after. Blood samples were centrifuged immediately, and the serum was collected and stored at -80 °C for further chemical analysis.
The E14.5 embryos were collected and fixed in 4% paraformaldehyde for 4 h and then kept at 4 °C in 70% ethanol. The litter size of each dam was recorded, and embryos were assessed for external malformations and photographed on a stereomicroscope (SteREO Discovery V8 + AxioCam Erc8, Zeiss, Oberkochen, Germany). The crown-rump lengths of embryos were measured in the photographs using ImageJ software (downloaded as a free software package from the public domain: http://rsb.info.nih.gov/ij/download.html) and based on the reference points described previously. Embryos were then embedded in paraffin, sectioned at 10, 7 and 5 μm, and stained with Ehrlich Haematoxylin & Eosin (H&E) for histology analysis. Representative sections were selected from at least three embryos for each condition and photographed on an Olympus (Tokyo, Japan) BX-61 photomicroscope.

adult male mice [1] = assay: Predator test; assay type: in vivo
Description: (§1) All trials were performed by an experimenter blind to the drug treatment.
Predator test. The predator test was performed in a rectangular arena (55 x 40 x 40 cm) where a small tube was placed in a corner. The subject mouse was first placed in the area with the empty tube for 5 mins and afterwards, the tube was filled with material from a cage that housed a rat and the mice were allowed to explore the entire fear test box for 10 mins. The time spent by the mice sniffing the tube full of the rat’s material was measured with the aid of the camera fitted to the top of the box.

adult male mice [2] = assay: Y maze working memory test; assay type: in vivo; details: mice from dams exposed to LCM vs control
Description: as §1
Y maze. The Y maze used had three equal sized arms (8 x 40 x 20 cm), with white opaque walls at a 120° angle from each other. After introduction to the centre of the maze, the mice was allowed to freely explore the three arms during 5 minutes, recording the number of arm entries and the number of triads in order to calculate the alternation. An entry was considered to occur when all four limbs are within the arm. The success of the triplet was taken into account when mice visited the three arms in three consecutive arm entries showing normal novelty preference and working memory.

adult male mice [3] = assay: Object recognition memory; assay type: in vivo; details: 1 hour after the training session; LCM in utero
Description: as §1
Object recognition memory. Mice were tested in a rectangular arena (55 x 40 x 40 cm) situated in a room with dim lighting and constant background noise. The object recognition protocol was described extensively elsewhere^2. Briefly, two equal objects were placed in the arena during a 15 minutes training phase and the animal’s memory of the original object was assessed by comparing the amount of time spent exploring the novel object against that for the familiar one in two sessions (of 10 minutes) performed 1 and 24h after training (for short-term and long-term memories [STM and LTM] respectively). The time spent exploring each object was recorded and the relative exploration of the novel object was expressed by a discrimination index [DI = (tnovel-tfamiliar)/(tnovel+tfamiliar)]. The criteria for exploration were based strictly on active exploration. Exploration of an object was defined as directing the nose toward the object at a distance of 1.5 cm and/or touching the object with the nose or vibrissae. Circling or sitting on the object were not considered exploratory behaviours.

[4] = LCM and related compounds (RC) in embryos and mothers' serum by high-resolution MS/MSe; assay type: in vivo, mice; details: Maternal Dose 10 mg/kg
Description: Samples were extracted as described previously[25] with slight modifications. Briefly, embryos were rinsed with cold saline and ultrapure water, and their wet-weight was determined. […] The mixture was vortexed vigorously for 3 min and centrifuged at 13,000 g for 5 min. The supernatant was transferred to a new Eppendorf tube and evaporated to dryness in a stream of nitrogen gas. The residue was reconstituted with 50 µL of LC-MS Ultrapure water, vortexed for 20 s and centrifuged at 13,000 g for 5 min. The supernatant was transferred to a conic micro insert to be injected onto the UHPLC system.
MS spectra data were collected between m/z 50 and 1000, and MS/MS spectra were registered between 50-300 Da. […] The MS^e procedure was used to identify metabolites in positive ionization mode. UPLC–QTOF-MS^e detection collects data using two scan functions, providing fragment ion information without precursor ion selection. A characteristic m/z in the low energy function allows identification through the fragment ions obtained with the high collision energy function. Two functions were acquired at different collision energies: a low energy function obtained at 2 eV; and a high-energy function obtained using a collision energy ramp ranging from 15 to 30 eV and spectra data collected between m/z 50 and 800. The data station operating the software was a MassLynx version 4.1, while metabolites were identified by means of Metabolynx XS (Waters, Micromass, Manchester, UK).
In this work the following routes were selected for these searches: phase I metabolites Reduction (+H2), Hydroxylation (O), Hydration (+H2O), 2xHydroxylation (+O2), Deacetylation (-C2H2O) and Demethylation (-CH2); and phase II metabolites Acetylation (+C2H2O) and Glucuronide (+C6H8O6).

[5] = 10 mg/kg LCM daily i.p. to dams
[6] = 40 mg/kg LCM daily i.p. to dams
[7] = 80 mg/kg LCM daily i.p. to dams
[8] = 120 mg/kg LCM daily i.p. to dams
[9] = High doses (80 or 120 mg/kg LCM daily i.p. to dams)
[10] = High doses (80 or 120 mg/kg LCM daily i.p. to dams), mean ± S.E.M., p < 0.05
[11] = Low doses (10 or 40 mg/kg LCM daily i.p. to dams)

Q: What does the source list for `COC[C@@H](NC(C)=O)C(=O)NCc1ccccc1` [LCM, R-2-acetamido-N-benzyl-3-methoxypropionamide]?
A: Emb (no.) (developing embryos; [5]): 117 no.; Lost Litter (no.) (developing embryos; [5]): 0 no.; Malformation (%) (developing embryos; [5]): 4.3%; Resorpt (%) (developing embryos; [5]): 4%; CR length (cm) (developing embryos; [5]): 1.18 cm; Emb (no.) (developing embryos; [6]): 67 no.; Lost Litter (no.) (developing embryos; [6]): 0 no.; Malformation (%) (developing embryos; [6]): 7.4%; Resorpt (%) (developing embryos; [6]): 1.5%; CR length (cm) (developing embryos; [6]): 1.09 cm; Emb (no.) (developing embryos; [7]): 41 no.; Lost Litter (no.) (developing embryos; [7]): 1 no.; Malformation (%) (developing embryos; [7]): 12.2%; Resorpt (%) (developing embryos; [7]): 0%; CR length (cm) (developing embryos; [7]): 1.03 cm; Emb (no.) (developing embryos; [8]): 73 no.; Lost Litter (no.) (developing embryos; [8]): 1 no.; Malformation (%) (developing embryos; [8]): 2.7%; Resorpt (%) (developing embryos; [8]): 2.5%; CR length (cm) (developing embryos; [8]): 1.08 cm; Emb (no.) (developing embryos; [9]): 114 no.; Lost Litter (no.) (developing embryos; [9]): 2 no.; Malformation (%) (developing embryos; [9]): 6.1%; Resorpt (%) (developing embryos; [9]): 1.75%; CR length (cm) (developing embryos; [10]): 1.06 ± 0.08^b cm; Emb/dam (developing embryos; [10]): 9.5 ± 0.4^b; Emb (no.) (developing embryos; [11]): 184 no.; Lost Litter (no.) (developing embryos; [11]): 0 no.; Malformation (%) (developing embryos; [11]): 5.4%; Resorpt (%) (developing embryos; [11]): 3.2%; CR length (cm) (developing embryos; Low doses (10 or 40 mg/kg LCM daily i.p. to dams), mean ± S.E.M.): 1.1 ± 0.1 cm; number of embryos/litter (developing embryos; high doses of LCM (80 or 120 mg/kg), p = 0.02): 9.5 ± 0.4 embryo/litter; number of embryos/litter (developing embryos; low doses of LCM (10 or 40 mg/kg)): 12.2 ± 0.1 embryos/litter; time sniffing the predator's material (adult male mice [1]; 40 mg/kg in utero): 22.85 ± 4.07%; time sniffing the predator's material (adult male mice [1]; 120 mg/kg in utero): 22.91 ± 2.08%; arm alternation in Y-maze (adult male mice [2]; p = 0.04): decrease in alternation; locomotion in Y-maze (adult male mice [2]; p = 0.087): mild increase in locomotion; short-term memory in object recognition (adult male mice [3]): no effects; Embryos in which the LCM compound is present [4]: Embryo1 and 2
